In PubChem BioAssay AID1963825 (Molecular Pharmacology Branch, DTP, NCI, 2024):

Experiment: Anticancer human tumor 997537-175-T-J1-PDC patient-derived colon adenocarcinoma cell line growth inhibition [POLQ]
Details: 997537-175-T-J1-PDC complex spheroid viability, combination with POLQ inhibitors; for IC50: curve of first compound; for viability, T/C: stronger effect = lower value
Outline: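 Patient-derived tumour cells were co-cultured with HUVEC and mesenchymal stem cells as multicellular spheroids at 37 °C. They were treated with POLQ inhibitors (novobiocin, ART-558, RP6685) alone or combined with other agents. Top concentrations were at or near clinical Cmax (otherwise 10 microM; SN-38 at 1 microM), decreasing in half-log steps.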

[1] = second compound 0.0316 µM, first compound 0.0316 µM
[2] = second compound 0.0316 µM, first compound 0.1 µM
[3] = second compound 0.0316 µM, first compound 0.316 µM
[4] = second compound 0.0316 µM, first compound 1 µM
[5] = second compound 0.0316 µM, first compound 3.16 µM
[6] = second compound 0.0316 µM, first compound 10 µM
[7] = second compound 0.1 µM, first compound 0.0316 µM
[8] = second compound 0.1 µM, first compound 0.1 µM
[9] = second compound 0.1 µM, first compound 0.316 µM
[10] = second compound 0.1 µM, first compound 1 µM
[11] = second compound 0.1 µM, first compound 3.16 µM
[12] = second compound 0.1 µM, first compound 10 µM
[13] = second compound 0.316 µM, first compound 0.0316 µM
[14] = second compound 0.316 µM, first compound 0.1 µM
[15] = second compound 0.316 µM, first compound 0.316 µM
[16] = second compound 0.316 µM, first compound 1 µM
[17] = second compound 0.316 µM, first compound 3.16 µM
[18] = second compound 0.316 µM, first compound 10 µM
[19] = second compound 1 µM, first compound 0.0316 µM
[20] = second compound 1 µM, first compound 0.1 µM
[21] = second compound 1 µM, first compound 0.316 µM
[22] = second compound 1 µM, first compound 1 µM
[23] = second compound 1 µM, first compound 3.16 µM
[24] = second compound 1 µM, first compound 10 µM
[25] = second compound 3.16 µM, first compound 0.0316 µM
[26] = second compound 3.16 µM, first compound 0.1 µM
[27] = second compound 3.16 µM, first compound 0.316 µM
[28] = second compound 3.16 µM, first compound 1 µM
[29] = second compound 3.16 µM, first compound 3.16 µM
[30] = second compound 3.16 µM, first compound 10 µM
[31] = second compound 10 µM, first compound 0.0316 µM
[32] = second compound 10 µM, first compound 0.1 µM
[33] = second compound 10 µM, first compound 0.316 µM
[34] = second compound 10 µM, first compound 1 µM
[35] = second compound 10 µM, first compound 3.16 µM
[36] = second compound 10 µM, first compound 10 µM
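Note: luminescence signal used as a surrogate for viable cells; spheroids exposed to drugs for seven days before readout.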

Q: For CC1COCCN1c1cc(-c2ccnn2C)c2ccnc(-c3ccn[nH]3)c2n1 (stereo unspecified) + COC1C(OC(N)=O)C(O)C(Oc2ccc3c(O)c(NC(=O)c4ccc(O)c(CC=C(C)C)c4)c(=O)oc3c2C)OC1(C)C, which IC50 (second compound 0.0316 µM) is on record?
A: 0.221 µM

Q: And the IC50 (second compound 0.1 µM)?
A: 0.648 µM

Q: And the IC50 (second compound 0.316 µM)?
A: 0.314 µM

Q: And the IC50 (second compound 1 µM)?
A: 0.409 µM

Q: And the IC50 (second compound 3.16 µM)?
A: 0.666 µM

Q: And the IC50 (second compound 10 µM)?
A: > 10 µM

Q: And the viability, T/C [1]?
A: 77.2%

Q: What about the viability, T/C [2] of the same compound?
A: 70.2%

Q: And the viability, T/C [3]?
A: 40.4%

Q: And the viability, T/C [4]?
A: 47%

Q: What about the viability, T/C [5] of the same compound?
A: 24.8%

Q: What about the viability, T/C [6] of the same compound?
A: 51.3%

Q: What about the viability, T/C [7] of the same compound?
A: 83.3%

Q: And the viability, T/C [8]?
A: 81.5%

Q: And the viability, T/C [9]?
A: 64.1%

Q: What about the viability, T/C [10] of the same compound?
A: 42.5%

Q: And the viability, T/C [11]?
A: 24.7%

Q: What about the viability, T/C [12] of the same compound?
A: 52.9%

Q: And the viability, T/C [13]?
A: 88.1%

Q: What about the viability, T/C [14] of the same compound?
A: 88.1%

Q: What about the viability, T/C [15] of the same compound?
A: 49.7%

Q: And the viability, T/C [16]?
A: 46.3%

Q: What about the viability, T/C [17] of the same compound?
A: 33%

Q: What about the viability, T/C [18] of the same compound?
A: 66.8%

Q: And the viability, T/C [19]?
A: 96.5%

Q: And the viability, T/C [20]?
A: 75%

Q: And the viability, T/C [21]?
A: 54.3%

Q: What about the viability, T/C [22] of the same compound?
A: 39%

Q: What about the viability, T/C [23] of the same compound?
A: 33.1%

Q: What about the viability, T/C [24] of the same compound?
A: 56.1%

Q: And the viability, T/C [25]?
A: 99.5%

Q: And the viability, T/C [26]?
A: 88.9%

Q: What about the viability, T/C [27] of the same compound?
A: 66.1%

Q: What about the viability, T/C [28] of the same compound?
A: 31.5%

Q: And the viability, T/C [29]?
A: 27.4%

Q: What about the viability, T/C [30] of the same compound?
A: 64.9%

Q: And the viability, T/C [31]?
A: 87%

Q: What about the viability, T/C [32] of the same compound?
A: 64.7%

Q: And the viability, T/C [33]?
A: 44%

Q: What about the viability, T/C [34] of the same compound?
A: 54%

Q: And the viability, T/C [35]?
A: 32.2%

Q: And the viability, T/C [36]?
A: 70.3%

Q: With CC1COCCN1c1cc(C2(S(C)(=N)=O)CC2)nc(-c2ccnc3[nH]ccc23)n1 (stereo unspecified) + COC1C(OC(N)=O)C(O)C(Oc2ccc3c(O)c(NC(=O)c4ccc(O)c(CC=C(C)C)c4)c(=O)oc3c2C)OC1(C)C as the compound, how does the IC50 (second compound 0.0316 µM) read?
A: > 10 µM

Q: What about the IC50 (second compound 0.1 µM) of the same compound?
A: > 10 µM

Q: What about the IC50 (second compound 0.316 µM) of the same compound?
A: > 10 µM

Q: What about the IC50 (second compound 1 µM) of the same compound?
A: > 10 µM

Q: What about the IC50 (second compound 3.16 µM) of the same compound?
A: > 10 µM

Q: What about the IC50 (second compound 10 µM) of the same compound?
A: > 10 µM

Q: What about the viability, T/C [1] of the same compound?
A: 113%

Q: What about the viability, T/C [2] of the same compound?
A: 114%

Q: What about the viability, T/C [3] of the same compound?
A: 84.4%

Q: And the viability, T/C [4]?
A: 85.4%

Q: What about the viability, T/C [5] of the same compound?
A: 90%

Q: And the viability, T/C [6]?
A: 49.9%

Q: And the viability, T/C [7]?
A: 94.5%

Q: What about the viability, T/C [8] of the same compound?
A: 102%

Q: What about the viability, T/C [9] of the same compound?
A: 82.7%

Q: And the viability, T/C [10]?
A: 72.1%

Q: And the viability, T/C [11]?
A: 80.3%

Q: And the viability, T/C [12]?
A: 60.5%

Q: And the viability, T/C [13]?
A: 99.8%

Q: And the viability, T/C [14]?
A: 112%

Q: And the viability, T/C [15]?
A: 105%

Q: What about the viability, T/C [16] of the same compound?
A: 94.2%

Q: And the viability, T/C [17]?
A: 77.7%

Q: What about the viability, T/C [18] of the same compound?
A: 54.7%

Q: And the viability, T/C [19]?
A: 110%

Q: What about the viability, T/C [20] of the same compound?
A: 92.7%

Q: And the viability, T/C [21]?
A: 102%

Q: What about the viability, T/C [22] of the same compound?
A: 106%

Q: And the viability, T/C [23]?
A: 67%

Q: And the viability, T/C [24]?
A: 56.4%

Q: What about the viability, T/C [25] of the same compound?
A: 109%

Q: What about the viability, T/C [26] of the same compound?
A: 112%

Q: What about the viability, T/C [27] of the same compound?
A: 106%

Q: And the viability, T/C [28]?
A: 94.3%

Q: And the viability, T/C [29]?
A: 79.2%

Q: And the viability, T/C [30]?
A: 66.6%

Q: And the viability, T/C [31]?
A: 109%

Q: And the viability, T/C [32]?
A: 95.7%

Q: What about the viability, T/C [33] of the same compound?
A: 98.9%

Q: What about the viability, T/C [34] of the same compound?
A: 66.5%

Q: And the viability, T/C [35]?
A: 71.6%

Q: And the viability, T/C [36]?
A: 62.8%

Q: Which results are given for COc1ccc([C@@H](O)c2cc(-c3ncnc4cc(N5CCOCC5)ccc34)c(F)cc2Cl)nn1 + COC1C(OC(N)=O)C(O)C(Oc2ccc3c(O)c(NC(=O)c4ccc(O)c(CC=C(C)C)c4)c(=O)oc3c2C)OC1(C)C?
A: IC50 (second compound 0.0316 µM): > 10 µM; IC50 (second compound 0.1 µM): > 10 µM; IC50 (second compound 0.316 µM): > 10 µM; IC50 (second compound 1 µM): > 10 µM; IC50 (second compound 3.16 µM): > 10 µM; IC50 (second compound 10 µM): > 10 µM; viability, T/C [1]: 116%; viability, T/C [2]: 115%; viability, T/C [3]: 110%; viability, T/C [4]: 92%; viability, T/C [5]: 105%; viability, T/C [6]: 87.7%; viability, T/C [7]: 109%; viability, T/C [8]: 103%; viability, T/C [9]: 95.3%; viability, T/C [10]: 97.5%; viability, T/C [11]: 94.4%; viability, T/C [12]: 98.5%; viability, T/C [13]: 107%; viability, T/C [14]: 103%; viability, T/C [15]: 92.5%; viability, T/C [16]: 96.8%; viability, T/C [17]: 115%; viability, T/C [18]: 81.7%; viability, T/C [19]: 98%; viability, T/C [20]: 106%; viability, T/C [21]: 109%; viability, T/C [22]: 92.4%; viability, T/C [23]: 97.2%; viability, T/C [24]: 77.4%; viability, T/C [25]: 106%; viability, T/C [26]: 108%; viability, T/C [27]: 109%; viability, T/C [28]: 105%; viability, T/C [29]: 93.3%; viability, T/C [30]: 83.8%; viability, T/C [31]: 111%; viability, T/C [32]: 103%; viability, T/C [33]: 118%; viability, T/C [34]: 83.6%; viability, T/C [35]: 115%; viability, T/C [36]: 114%
